Results on eight compounds are retold here after patent publication EP0118120A2, “1,4-Dihydropyridine compound” (priority 1983, dated 1984).

Data set [1] concerns liver disorder induced by carbon tetrachloride. Description: Effect on liver disorder induced by carbon tetrachloride in rats, serum GOT, GPT, AlP, bilirubin (Example 26). The class given is in vivo, SLC-Wistar male rats. The settings on record: rats 9 weeks old. As to the method: (§1) Effect of the compounds according to the present invention on liver disorder induced by carbon tetrachloride
(§2) The effects of the sample compounds to be tested on hepatic disorder were evaluated by determining the levels of GOT, GPT, AlP, and bilirubin, which are known as an indicator of hepatic disorder, in serum, after administering carbon tetrachloride and the sample compounds to SLC-Wistar male rats (9 weeks old and body weight of 210 to 250 g in Tables 1, 3, and 4, and 10 weeks old and body weight of 230 to 260 g in Table 2) as follows.
(§3) Five rats were used in each test group. The sample compound (i.e., each compound listed below) was suspended at a concentration of 40 mg/ml in a 0.1% aqueous solution of Tween-80 (i.e., nonionic surfactant available from Atlas Powder Co., Ltd.). The resultant suspension was orally administered at a dose of 200 mg/kg each at 25 hours and 1 hour before the administration of carbon tetrachloride, except for the control group. For the control group to which only carbon tetrachloride was administered in the evaluation test, a 0.1% aqueous Tween-80 was orally administered at a dose of 5 ml/kg in the same manner.
(§4) Carbon tetrachloride was intraperiotoneally administered as a 10% olive oil solution at a dose of 5 ml/kg (0.5 ml/kg in terms of CC14) one hour after the final administration of the sample compound. For the control (normal) group, olive oil was intraperitoneally administered in the same manner at a dose of 5 ml/kg.
(§5) Blood samples were collected from the carotid artery under pentobarbital anesthesia, 24 hours after the administration of carbon tetrachloride. The rats were fasted for 18 to 22 hours before collecting the blood samples.
(§6) The determination of GOT and GPT in serum was carried out according to a UV method, the determination of AlP was carried cut according to Bessy-Lowry method, and the determination of bilirubin was carried out according to a diazo method.

Another data set concerns SLC-Wistar male rats. Description: Acute toxicity, oral LD50 in rats (Example 29). The class given is in vivo. To be noted: male rats 5 weeks old, 100 to 125 g, observed for one week, 10080 min. An excerpt:
(§7) Acute toxicity of the compounds according to the present invention

Data set [2] is described as follows: Acute toxicity, oral LD50 in rats (Example 29). The class given is in vivo. The settings on record: rat, in vivo, male rats 5 weeks old, 100 to 125 g, observed for one week.
From the text: as §7

Data set [3] is described as follows: Acute toxicity, oral LD50 in rats (Example 28). To be noted: rat, in vivo, male rats 5 weeks old, 130 to 150 g, observed for one week.
From the text: as §7

Data set [4] relates to liver disorder induced by carbon tetrachloride. The data set can be described thus: Effect on liver disorder induced by carbon tetrachloride in rats, repeat with 8 weeks old rats (Example 27). The class given is in vivo, SLC-Wistar male rats. To be noted: Table 5, serum 24 hours after CCl4, 200 mg/kg orally x2, rats 8 weeks old; for GOT: 170 to 210 g, CCl4 only 27875 ± 3628, normal 78 ± 3; for Bilirubin: CCl4 only 0.55 ± 0.16, normal 0.10 ± 0.00; for AlP: CCl4 only 41.3 ± 2.5, normal 25.7 ± 0.4; for GPT: CCl4 only 12984 ± 1465, normal 30 ± 3. The method, then: as §2, §3, §4, §5, §6, §1
The evaluation tests of Example 26 were repeated except that SLC-Wistar male rats (8 weeks old and body weight of 170 to 210 g) were used.

[5] abbreviates: Table 3, serum 24 hours after CCl4, 200 mg/kg orally x2, CCl4 only 0.38 ± 0.06, normal 0.22 ± 0.04.
The mark [6] stands for this setting: Table 3, serum 24 hours after CCl4, 200 mg/kg orally x2, CCl4 only 34.4 ± 2.6, normal 27.0 ± 0.5.
The mark [7] stands for this setting: Table 3, serum 24 hours after CCl4, 200 mg/kg orally x2, CCl4 only 9188 ± 1815, normal 30 ± 2.
Setting [8] is: Table 3, serum 24 hours after CCl4, 200 mg/kg orally x2, CCl4 only 13189 ± 2205, normal 81 ± 3.
Where [9] appears, read: Table 4, serum 24 hours after CCl4, 200 mg/kg orally x2, CCl4 only 0.38 ± 0.04, normal 0.10 ± 0.00.
The mark [10] stands for this setting: Table 4, serum 24 hours after CCl4, 200 mg/kg orally x2, CCl4 only 35.0 ± 2.0, normal 24.4 ± 0.7.
[11] abbreviates: Table 4, serum 24 hours after CCl4, 200 mg/kg orally x2, CCl4 only 10523 ± 2313, normal 31 ± 3.
The mark [12] stands for this setting: Table 4, serum 24 hours after CCl4, 200 mg/kg orally x2, CCl4 only 17704 ± 4140, normal 76 ± 4.

Turning to “3,5-dicyano-4-[2-(5,6-dihydro-p--dioxinyl)]-2,6-dimethyl-1,4-dihvdropyridine [Sample Compound A]”, the GOT in data set [1] (Table 1, serum 24 hours after CCl4 0.5 ml/kg i.p., compound 200 mg/kg orally 25 hours and 1 hour before CCl4, CCl4 only 17327 ± 2336, normal 76 ± 1) came to 3874 ± 792 K.U. Besides, the Bilirubin in data set [1] (Table 1, serum 24 hours after CCl4, 200 mg/kg orally x2, CCl4 only 0.62 ± 0.30, normal 0.10 ± 0.00) was found to be 0.24 ± 0.02 mg/dL. Further, the AlP in data set [1] (Table 1, serum 24 hours after CCl4, 200 mg/kg orally x2, CCl4 only 35.5 ± 2.5, normal 23.6 ± 0.4) stood at 31.4 ± 0.9 K-AU. This compound also yielded a GPT in data set [1] (Table 1, serum 24 hours after CCl4, 200 mg/kg orally x2, CCl4 only 10496 ± 1221, normal 31 ± 2) of 2380 ± 472 K.U. In addition, in the data set on SLC-Wistar male rats, the LD50 (usually the dose expected to kill half of the subjects tested) is “more than 1000 mg/kg”.

Consider `COCOC(=O)C1=C(C)NC(C)=C(C(=O)OCOC)C1C1=COCCO1` [Sample Compound F, bis(methoxymethyl) 4-[2-(5,6-dihydro-p-dioxinyl)]-2,6-dimethyl-1,4-dihydrcpyridine-3,5-dicarboxylate], for which the Bilirubin in data set [1] (setting [5]) was 0.22 ± 0.05 mg/dL. In data set [1] (setting [6]), this compound had an AlP of 26.4 ± 1.0 K-AU. The compound further had a GPT in data set [1] (setting [7]) of 274 ± 99 K.U. For the same compound, the GOT in data set [1] (setting [8]) is 432 ± 107 K.U. This compound also came in with an LD50 at 168 h in data set [2] of more than 2000 mg/kg.

`C#CCOC(=O)C1=C(C)NC(C)=C(C(=O)OCC#C)C1C1=COCCO1` [Sample Compound I, dipropargyl 4-[2-(5,6-dihydro-p-dioxinyl)]-2,6-dimethyl-l,4-dihydropyridine-3,5-dicarboxylate] showed a Bilirubin in data set [1] (setting [9]) of 0.22 ± 0.02 mg/dL. Besides, the AlP in data set [1] (setting [10]) is 27.6 ± 1.8 K-AU. Also, the GPT in data set [1] (setting [11]) worked out at 2110 ± 228 K.U. This compound gave a GOT in data set [1] (setting [12]) of 2925 ± 380 K.U. Moreover, the 50% lethal dose (LD50) at 168 h in data set [3] was more than 2000 mg/kg.

`COCCOC(=O)C1=C(C)NC(C)=C(C(=O)OCCOC)C1C1=COCCO1` [Sample Compound J, bis (2-methoxyethyl) 4-[2-(5,6-dihydro-p-dioxinyl)]-2,6-dimethyl-1,4-dihydropyridine-3,5-dicarboxylate] showed a Bilirubin in data set [1] (setting [9]) of 0.18 ± 0.03 mg/dL. The AlP in data set [1] (setting [10]) was 27.4 ± 2.6 K-AU. The compound also came in with a GPT in data set [1] (setting [11]) of 626 ± 179 K.U. This compound also came in with a GOT in data set [1] (setting [12]) of 807 ± 211 K.U. In data set [3], this compound displayed an LD50 at 168 h of more than 1000 mg/kg.

With `CC(=O)C1=C(C)NC(C)=C(C(C)=O)C1C1=COCCO1` [Sample Compound L, 3,5-diacetyl-4-[2-(5,6-dihydro-p-dioxinyl)]-2,6-dimethyl-1,4-dihydropyridine], the Bilirubin in data set [1] (setting [9]) worked out at 0.22 ± 0.02 mg/dL. In data set [1] (setting [10]), this compound showed an AlP of 34.2 ± 1.5 K-AU. Besides, the GPT in data set [1] (setting [11]) is listed as 285 ± 96 K.U. Further, in data set [1] (setting [12]), the GOT turned out to be 429 ± 113 K.U. This compound came in with an LD50 at 168 h in data set [3] of more than 1000 mg/kg.

Compound `CC(=O)C1=C(C)NC(C)=C(C(C)=O)C1C1=C(C)OC(C)CO1` (stereo not shown) [Sample Compound O, 3,5-diacetyl-2,6-dimethyl-4-2-(3,5-dimethyl-5,6-dihydro-p-dioxinyl) -1,4-dihydro pyridine] had a Bilirubin in data set [1] (setting [5]) of 0.26 ± 0.02 mg/dL. This compound gave an AlP in data set [1] (setting [6]) of 37.2 ± 1.6 K-AU. The GPT in data set [1] (setting [7]) is on record as 410 ± 64 K.U. The same compound registered a GOT in data set [1] (setting [8]) of 565 ± 98 K.U. For the same compound, the LD50 at 168 h in data set [2] is more than 2000 mg/kg.

Take `COCN1C(C)=C(C(C)=O)C(C2=COCCO2)C(C(C)=O)=C1C` [Sample Compound R, 3,5-diacetyl-4-[2-(5,6-dihydro-p-dioxinyl)]-1-methoxymethyl-2,6-dimethyl-1,4-dihydropyridine]: in data set [4], the GOT stood at 425 ± 124 K.U, the Bilirubin was determined as 0.16 ± 0.02 mg/dL, the AlP is listed as 31.4 ± 1.6 K-AU and the GPT was determined as 260 ± 98 K.U. This compound also displayed an LD50 at 168 h in data set [2] of more than 1500 mg/kg.

In data set [4], `COCC1=C(C2C(C(C)=O)=C(C)NC(C)=C2C(C)=O)OCCO1` [Sample Compound V, 3,5-diacetyl-4-2-(3-methoxy-methvl-5,6-dihydro-p-dioxinyl) -2,6-dimethyl-l,4-dihydropyridine] displayed a GOT of 2036 ± 677 K.U, a Bilirubin of 0.15 ± 0.03 mg/dL, an AlP of 35.6 ± 1.4 K-AU and a GPT of 1251 ± 414 K.U. This compound displayed an LD50 at 168 h in data set [2] of more than 2000 mg/kg.
